Assay results: US10124004B2, “Pyrido[3,4-d]pyrimidine derivative and pharmaceutically acceptable salt thereof” (Teijin Pharma Limited, priority 2015, dated 2018)
Where two headings read alike, the source gives them in different places.

What was measured:
[1] = biological target: T1, CDK2/cyclin A2 (Homo sapiens, UniProt P24941); test: Human CDK2/cyclin A2 inhibitory activity (QS S Assist CDK2/Cyclin A2_FP Kit, IMAP fluorescence polarization); type: biochemical
T1 construct: purchased Carna Biosciences, Inc. QS S Assist CDK2/Cyclin A2_FP Kit
Summary of the method: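 Kinase activity read as fluorescence polarization (485/535 nm) after phosphorylated fluorescent substrate binds IMAP reagent (30 min, RT, dark). Enzyme (2.5 ng/well) reacted 60 min at RT with ATP/substrate/metal in HEPES pH 7.4 buffer with Tween 20 and DTT; no-enzyme wells define 0% activity; IC50 by curve fit.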

[2] = biological target: T2, CDK4/cyclin D3 (Homo sapiens, UniProt P11802); test: Human CDK4/cyclin D3 inhibitory activity (QS S Assist CDK4/Cyclin D3_FP Kit, IMAP fluorescence polarization); type: biochemical
T2 construct: purchased Carna Biosciences, Inc. QS S Assist CDK4/Cyclin D3_FP Kit
T2 sequence (P11802 whole entry): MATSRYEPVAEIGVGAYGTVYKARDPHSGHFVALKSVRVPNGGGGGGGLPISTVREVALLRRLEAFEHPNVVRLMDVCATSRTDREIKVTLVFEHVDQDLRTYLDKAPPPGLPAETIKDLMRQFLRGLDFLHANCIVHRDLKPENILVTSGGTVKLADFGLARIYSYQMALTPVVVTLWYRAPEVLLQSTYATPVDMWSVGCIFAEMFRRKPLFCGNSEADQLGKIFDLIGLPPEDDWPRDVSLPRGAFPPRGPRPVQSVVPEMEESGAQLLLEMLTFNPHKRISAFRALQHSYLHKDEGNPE
T2 sequence (P30281 whole entry partner): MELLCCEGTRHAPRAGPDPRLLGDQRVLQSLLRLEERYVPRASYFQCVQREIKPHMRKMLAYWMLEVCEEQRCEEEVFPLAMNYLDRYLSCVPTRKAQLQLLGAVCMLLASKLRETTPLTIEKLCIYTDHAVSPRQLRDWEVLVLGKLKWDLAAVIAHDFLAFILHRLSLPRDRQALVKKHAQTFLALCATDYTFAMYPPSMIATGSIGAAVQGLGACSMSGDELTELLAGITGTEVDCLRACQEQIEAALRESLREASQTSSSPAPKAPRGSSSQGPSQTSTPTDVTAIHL
Summary of the method: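 IMAP fluorescence polarization kit: CDK4/cyclin D3 at 12.5-25 ng/well with kit ATP/substrate/metal mix in 20 mM HEPES pH 7.4, 0.01% Tween20, 2 mM DTT, 45 min at room temperature. FP read at 485/535 nm after 30 min binding; IC50 from dose-response fit of percent inhibition versus enzyme and no-enzyme controls.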

[3] = 50% inhibitory concentration against CDK2/cyclin A2, given as class symbol
[4] = 50% inhibitory concentration against CDK4/cyclin D3, given as class symbol
[5] = Human CDK2/cyclin A2 inhibitory activity, read-out: CDK2 Activity symbol
[6] = Human CDK4/cyclin D3 inhibitory activity, read-out: CDK4 Activity symbol

## C[C@@H](O)c1nc(N[C@H]2CCCOC2)c2nc(Nc3ccc(N4CCNCC4=O)cn3)ncc2c1Cl [Compound 751]
[1]; [3]
  IC50: ≥ 100 nM
[2]; [4]
  IC50: < 10 nM

## COCC(C)(C)Nc1nc([C@@H](C)O)cc2cnc(Nc3ccc(CN4CCOCC4(C)C)cn3)nc12 [Compound 298]
[1]; [5]
  IC50: ≥ 100 nM
[2]; [6]
  IC50: 10 to 100 nM

## C[C@@H](O)c1cc2cnc(Nc3ccc(OCC4CCN4)cn3)nc2c(N[C@H]2CCCOC2)n1 (some centres unmarked) [Compound 802]
[1]; [3]
  IC50: ≥ 100 nM
[2]; [4]
  IC50: < 10 nM

## CO[C@H](C)c1cc2cnc(Nc3ccc(CN4CCNCC4)cn3)nc2c(NCC2CCOC2)n1 (some centres unmarked) [Compound 320]
[1]; [5]
  IC50: ≥ 100 nM
[2]; [6]
  IC50: < 10 nM

## CO[C@H](C)c1cc2cnc(Nc3ccc(CN4CCNCC4)cn3)nc2c(NCC2CCOCC2)n1 [Compound 360]
[1]; [5]
  IC50: ≥ 100 nM
[2]; [6]
  IC50: < 10 nM

## CC(C)Nc1nc(C2CCOC2)cc2cnc(Nc3ccc(N4CCNCC4=O)cn3)nc12 (single isomer, unassigned) [Compound 774]
[1]; [3]
  IC50: ≥ 100 nM
[2]; [4]
  IC50: 10 to 100 nM

## CO[C@H](C)c1cc2cnc(Nc3ccc(N4CCNCC4)nn3)nc2c(NCC2CCOCC2)n1 [Compound 358]
[1]; [5]
  IC50: ≥ 100 nM
[2]; [6]
  IC50: < 10 nM

## CC(C)Nc1nc(C2CCOC2)cc2cnc(Nc3ccc(N4CCN(CC(=O)O)CC4C(F)(F)F)cn3)nc12 (centres unmarked) [Compound 889]
[1]; [3]
  IC50: ≥ 100 nM
[2]; [4]
  IC50: 10 to 100 nM

## CO[C@H](C)c1cc2cnc(Nc3ccc(CN4CCNCC4)cn3)nc2c(N[C@@H]2CCOC2)n1 [Compound 303]
[1]; [5]
  IC50: ≥ 100 nM
[2]; [6]
  IC50: < 10 nM

## CC(C)Nc1nc([C@@H](C)O)cc2cnc(Nc3ccc4c(n3)CCN(C(=O)C3CCNCC3)C4)nc12 [Compound 932]
[1]; [3]
  IC50: ≥ 100 nM
[2]; [4]
  IC50: < 10 nM

## C[C@@H](O)c1cc2cnc(Nc3ccc(N4CCC(O)CC4)nn3)nc2c(N[C@H]2CCCOC2)n1 [Compound 595]
[1]; [5]
  IC50: ≥ 100 nM
[2]; [6]
  IC50: < 10 nM

## CC(C)Nc1nc(C(F)F)cc2cnc(Nc3ccc(CN(CC4CCOCC4)S(C)(=O)=O)cn3)nc12 [Compound 143]
[1]; [5]
  IC50: ≥ 100 nM
[2]; [6]
  IC50: 10 to 100 nM

## CC(O)c1cc2cnc(Nc3ccc(N4CCNCC4)cn3)nc2c(NC2CCC2)n1 (centres unmarked) [Compound 48]
[1]; [5]
  IC50: ≥ 100 nM
[2]; [6]
  IC50: < 10 nM

## C[C@@H](O)c1cc2cnc(Nc3ccc(N4CCNCC4=O)cn3)nc2c(NC2CCCC2)n1 [Compound 1078]
[1]; [3]
  IC50: ≥ 100 nM
[2]; [4]
  IC50: < 10 nM

## CC(C)Nc1nc([C@@H](C)O)cc2cnc(Nc3ccc(N4CC5(CC(N)C5)C4)nn3)nc12 [Compound 576]
[1]; [5]
  IC50: ≥ 100 nM
[2]; [6]
  IC50: < 10 nM

## CCNc1nc([C@@H](C)O)cc2cnc(Nc3ccc4c(n3)CCN(CCN(C)C)C4)nc12 [Compound 1139]
[1]; [3]
  IC50: ≥ 100 nM
[2]; [4]
  IC50: < 10 nM

## Cc1nc(Nc2ncc3cc(C4CCOC4)nc(NC(C)C)c3n2)ccc1N1CCNCC1=O (single isomer, unassigned) [Compound 875]
[1]; [3]
  IC50: ≥ 100 nM
[2]; [4]
  IC50: < 10 nM

## CO[C@H](C)c1cc2cnc(Nc3ccc(CN4CCNCC4)cn3)nc2c(N[C@H]2CC[C@H](O)CC2)n1 [Compound 345]
[1]; [5]
  IC50: ≥ 100 nM
[2]; [6]
  IC50: < 10 nM

## CC(C)Nc1nc(C(F)F)cc2cnc(Nc3ccc(CN4CCCCC4C(=O)O)cn3)nc12 (centres unmarked) [Compound 194]
[1]; [5]
  IC50: 10 to 100 nM
[2]; [6]
  IC50: < 10 nM

## CC(C)Nc1nc([C@@H](C)O)cc2cnc(Nc3ccc(N4CC[C@H](O)C4)nn3)nc12 [Compound 662]
[1]; [3]
  IC50: ≥ 100 nM
[2]; [4]
  IC50: < 10 nM

## CC(C)Nc1nc(C2CCOC2)cc2cnc(Nc3ccc(N4CCNCC4)nn3)nc12 (centres unmarked) [Compound 877]
[1]; [3]
  IC50: ≥ 100 nM
[2]; [4]
  IC50: < 10 nM

## CC(C)Nc1nc([C@@H](C)O)cc2cnc(Nc3ccc(N4CC5CCCN5CC4=O)cn3)nc12 (some centres unmarked) [Compound 825]
[1]; [3]
  IC50: ≥ 100 nM
[2]; [4]
  IC50: < 10 nM

## CCCNc1nc([C@@H](C)O)cc2cnc(Nc3ccc(CN4CCCC(O)C4)cn3)nc12 (some centres unmarked) [Compound 1081]
[1]; [3]
  IC50: ≥ 100 nM
[2]; [4]
  IC50: < 10 nM

## CCNc1nc([C@@H](C)O)cc2cnc(Nc3ccc(CN4CCN(CCO)CC4)c(C)n3)nc12 [Compound 1046]
[1]; [3]
  IC50: ≥ 100 nM
[2]; [4]
  IC50: < 10 nM

## CC(C)Nc1nc(C(C)O)cc2cnc(Nc3ccc(N4CCC(O)C(F)C4)nn3)nc12 (centres unmarked) [Compound 608]
[1]; [5]
  IC50: ≥ 100 nM
[2]; [6]
  IC50: < 10 nM

## CC(C)Nc1nc([C@@H](C)O)cc2cnc(Nc3ccc(N4CC(C)(C)NCC4=O)cn3)nc12 [Compound 923]
[1]; [3]
  IC50: ≥ 100 nM
[2]; [4]
  IC50: < 10 nM

## CC(C)Nc1nc([C@@H](C)O)cc2cnc(Nc3ccc(N4CCN5CCCC5C4=O)cn3)nc12 (some centres unmarked) [Compound 642]
[1]; [3]
  IC50: ≥ 100 nM
[2]; [4]
  IC50: < 10 nM

## C[C@@H](O)c1cc2cnc(Nc3ccc(N4CCN(C)CC4)nn3)nc2c(NC2CCC(C)(C)OC2)n1 (some centres unmarked) [Compound 639]
[1]; [3]
  IC50: ≥ 100 nM
[2]; [4]
  IC50: < 10 nM
